Laboratory results as given in patent US6894059B1, “Compounds and methods for treatment of asthma, allergy and inflammatory disorders” (UCB S.A., priority 1999, dated 2005).
Counter-ions that a name gives are not always drawn.

Compound | melting point [°C]
NC(=O)c1cc(C#CCCN(O)C(N)=O)ccc1OCCN1CCN([C@H](c2ccccc2)c2ccc(Cl)cc2)CC1 (as salt: HCl) [Compound 64, 2-(2-{4-[(1R)(4-chlorophenyl)phenylmethyl]piperazinyl}ethoxy)-5-[4-(aminohydroxycarbonyl-amino)but-1-ynyl]benzamide] | 208
NC(=O)N(O)CCCCc1ccc(OCCCCN2CCN([C@H](c3ccccc3)c3ccc(Cl)cc3)CC2)cc1 (as salt: HCl) [Compound 76, N-{4-[4-(4-{4-[(1R)(4-chlorophenyl)phenylmethyl]piperazinyl}butoxy)phenyl]butyl}amino-N-hydroxyamide] | 121 to 123
NC(=O)N(O)CCCCc1ccc(OCCN2CCN([C@H](c3ccccc3)c3ccc(Cl)cc3)CC2)cc1 [Compound 17, N-{4-[4-(2-{4-[(1R)(4-chlorophenyl)phenylmethyl]piperazinyl}ethoxy)phenyl]butyl}amino-N-hydroxyamide] | 148 to 150
NC(=O)c1cc(C#CCCN(O)C(N)=O)ccc1OCCN1CCN([C@H](c2ccccc2)c2ccc(Cl)cc2)CC1 [Compound 35, 2-(2-{4-[(1R)(4-chlorophenyl)phenylmethyl]piperazinyl}ethoxy)-5-[4-(aminohydroxycarbonyl-amino)but-1-ynyl]benzamide] | 156 to 158
NC(=O)c1cc(C#CCCN(O)C(N)=O)ccc1OCCCN1CCN([C@H](c2ccccc2)c2ccc(Cl)cc2)CC1 [Compound 62, 2-[3-{4-[(1R)(4-chlorophenyl)phenylmethyl]piperazinyl}propoxy)-5-[4-(aminohydroxycarbonyl-amino)but-1-ynyl]benzamide] | 153 to 155
CC(=O)Nc1cc(C#CCCN(O)C(N)=O)ccc1OCCN1CCN([C@H](c2ccccc2)c2ccc(Cl)cc2)CC1 [Compound 77, N-[2-(2-{4-[(1R)(4-chlorophenyl)phenylmethyl]piperazinyl}ethoxy)-5-[4-(aminohydroxycarbonyl-amino)but-1-ynyl]phenyl] acetamide] | 90 to 95
NC(=O)N(O)CCCCc1ccc(OCCCN2CCN([C@H](c3ccccc3)c3ccc(Cl)cc3)CC2)cc1 [Compound 79, N-{4-[4-(3-{4-[(1R)(4-chlorophenyl)phenylmethyl]piperazinyl}propoxy)phenyl]butyl}amino-N-hydroxyamide] | 60 to 65
NC(=O)N(O)CCC#Cc1ccc(OCCCCN2CCN(C(c3ccc(F)cc3)c3ccc(F)cc3)CC2)cc1 [Compound 80, amino-N-{4-[4-(4-{4-[bis(4-fluorophenyl)methyl]piperazinyl}butoxy)phenyl]but-3-ynyl}-N-hydroxyamide] | 64 to 68
NC(=O)N(O)CCCc1ccc(OCCCN2CCN([C@H](c3ccccc3)c3ccc(Cl)cc3)CC2)cc1 [Compound 82, N-{3-[4-(3-{4-[(1R)(4-chlorophenyl)phenylmethyl]piperazinyl}propoxy)phenyl]propyl}amino-N-hydroxyamide] | 52 to 90
NC(=O)N(O)CCC#Cc1ccc(OCCCN2CCN(C(c3ccc(F)cc3)c3ccc(F)cc3)CC2)cc1 [Compound 83, amino-N-{4-[4-(3-{4-[bis(4-fluorophenyl)methyl]piperazinyl}propoxy)phenyl]but-3-ynyl}-N-hydroxyamide] | 78
NC(=O)c1cc(CCCCN(O)C(N)=O)ccc1OCCCN1CCN([C@H](c2ccccc2)c2ccc(Cl)cc2)CC1 [Compound 84, 2-(3-{4-[(1R)(4-chlorophenyl)phenylmethyl]piperazinyl}propoxy)-5-[4-(aminohydroxycarbonyl-amino)butyl]benzamide] | 123 to 125
NC(=O)c1cc(CCCCN(O)C(N)=O)ccc1OCCN1CCN(C(c2ccc(F)cc2)c2ccc(F)cc2)CC1 [Compound 85, 5-{4-[(aminocarbonyl) (hydroxy)amino]butyl}-2-(2-{4-[bis(4-fluorophenyl)methyl]-1-piperazinyl}ethoxy)benzamide] | 138 to 140
NC(=O)N(O)CCCc1ccc(OCCCN2CCN(C(c3ccc(F)cc3)c3ccc(F)cc3)CC2)cc1 [Compound 86, N-{3-[4-(3-{4-[bis(4-fluorophenyl)methyl]-1-piperazinyl}propoxy)phenyl]propyl}-N-hydroxyurea] | 30 to 80

Now from value to molecule:

melting point [°C] | Compound
153 to 156 | NC(=O)c1cc(C#CCCN(O)C(N)=O)ccc1OCCN1CCN([C@H](c2ccccc2)c2ccc(Cl)cc2)CC1 (as salt: citrate) [Compound 93, 5-{4-[(aminocarbonyl) (hydroxy)amino]-1-butynyl}-2-(2-{4-[(R)-(4-chlorophenyl)(phenyl)methyl]-1-piperazinyl}ethoxy)benzamide]
162 to 165 | NC(=O)c1cc(C#CCCN(O)C(N)=O)ccc1OCCN1CCN([C@H](c2ccccc2)c2ccc(Cl)cc2)CC1 (as salt: fumarate) [Compound 89, 5-{4-[(aminocarbonyl) (hydroxy)amino]-1-butynyl}-2-(2-{4-[(R)-(4-chlorophenyl)(phenyl)methyl]-1-piperazinyl}ethoxy)benzamide]
169 to 172 | NC(=O)c1cc(C#CCCN(O)C(N)=O)ccc1OCCN1CCN([C@H](c2ccccc2)c2ccc(Cl)cc2)CC1 (as salt: maleate) [Compound 91, 5-{4-[(aminocarbonyl) (hydroxy)amino]-1-butynyl}-2-(2-{4-[(R)-(4-chlorophenyl)(phenyl)methyl]-1-piperazinyl}ethoxy)benzamide]
155 to 158 | NC(=O)c1cc(C#CCCN(O)C(N)=O)ccc1OCCN1CCN([C@H](c2ccccc2)c2ccc(Cl)cc2)CC1 (as salt: tartrate) [Compound 92, 5-{4-[(aminocarbonyl) (hydroxy)amino]-1-butynyl}-2-(2-{4-[(R)-(4-chlorophenyl)(phenyl)methyl]-1-piperazinyl}ethoxy)benzamide]
65 to 70 | NC(=O)N(O)CCC#Cc1ccc(OCCN2CCN(C(c3ccc(F)cc3)c3ccc(F)cc3)CC2)cc1[N+](=O)[O-] [Compound 87, N-{4-[4-(2-{4-[bis(4-fluorophenyl)methyl]-1-piperazinyl}ethoxy)-2-nitrophenyl]-3-butynyl}-N-hydroxyurea]
140 to 145 | NC(=O)N(O)CCCCc1ccc(OCCN2CCN(C(c3ccc(F)cc3)c3ccc(F)cc3)CC2)cc1 [Compound 88, N-{4-[4-(2-{4-[bis(4-fluorophenyl)methyl]-1-piperazinyl}ethoxy)phenyl]butyl}-N-hydroxyurea]
70 to 75 | NC(=O)N(O)CCC#Cc1ccc(OCCN2CCN([C@H](c3ccccc3)c3ccc(Cl)cc3)CC2)cc1[N+](=O)[O-] [Compound 90, N-{4-[4-(2-{4-[(R)-(4-chlorophenyl)(phenyl)methyl]-1-piperazinyl}ethoxy)-2-nitrophenyl]-3-butynyl}-N-hydroxyurea]
64 to 66 | NC(=O)N(O)CCCOc1ccc(CCCN2CCN([C@H](c3ccccc3)c3ccc(Cl)cc3)CC2)cc1 [Compound 94, N-{3-[4-[3-{4-[(R)-(4-chlorophenyl)(phenyl)methyl]-1-piperazinyl}propyl]phenoxy]propyl}-N-hydroxyurea]
127 to 130 | NC(=O)N(O)CCC#Cc1ccc(OCC#CCN2CCN([C@H](c3ccccc3)c3ccc(Cl)cc3)CC2)cc1 [Compound 95, N-(4-{4-[(4-{4-[(R)(4-chlorophenyl)(phenyl)methyl]-1-piperazinyl}-2-butynyl)oxy]phenyl}-3-butynyl)-N-hydroxyurea]
